The text below walks through data of patent US11912705B2, “Cathinone derivatives, pharmaceutical formulations, and methods” (The Corporation of Mercer University, priority 2020, dated 2024).

One data set has as its target T1, human M1R (Homo sapiens, UniProt P11229).
T1 construct: host or cells: HEK293 (CRL-1573, ATCC), transient
T1 sequence (P11229 1-460): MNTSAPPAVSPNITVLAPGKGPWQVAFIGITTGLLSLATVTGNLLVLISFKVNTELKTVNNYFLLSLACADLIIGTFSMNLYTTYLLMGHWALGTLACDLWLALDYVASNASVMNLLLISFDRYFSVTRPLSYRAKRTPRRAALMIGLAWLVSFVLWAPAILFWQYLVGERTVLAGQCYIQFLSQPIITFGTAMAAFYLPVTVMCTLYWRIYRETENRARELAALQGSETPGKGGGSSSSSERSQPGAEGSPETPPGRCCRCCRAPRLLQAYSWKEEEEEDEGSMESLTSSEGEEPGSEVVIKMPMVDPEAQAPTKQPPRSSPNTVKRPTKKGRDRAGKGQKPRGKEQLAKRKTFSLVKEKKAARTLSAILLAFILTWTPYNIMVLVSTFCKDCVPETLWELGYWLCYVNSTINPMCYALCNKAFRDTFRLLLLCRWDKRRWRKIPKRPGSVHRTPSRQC
In words: biochemical. The format is binding. Particulars: full dose-response [3H]Scopolamine competition binding; α-PPP and α-PBP interpolated; read-out: pKi at M1R (converted). On the procedure: (§1) Radioligand Competition Binding: Radioligand competition binding assays were conducted using membranes collected from transiently transfected HEK293 cells (P<20 from a procured stock, CRL-1573, ATCC, Manassas, Va., USA) as previously described (Chen, Y., et al. Drug Test Anal 11, 990-998). Briefly, cells ˜90% confluent in 10 cm plates were transfected with 5 μg human M1R, M2R, M3R, M4R or […] cDNA (cDNA resource center, Bloomsburg, Pa., USA) using a lipid-based method (LipoD293 reagent, SignaGen Laboratories, Rockville, Md., USA). Membranes were collected by centrifugation about 48 hours later and stored at −80° C. until used. […] After a 90-minute incubation at room temperature on a shaker, contents from the plates were rapidly filtered through GF/B fiberglass filter mats, pre-soaked with ice cold 50 mM Tris buffer (pH 7.4), using a Microbeta Filtermat-96 cell harvester (Perkin Elmer, Waltham, Mass., USA). Approximately 200 mL of ice cold, 50 mM Tris buffer was then vacuumed through filter mats to wash away unbound radioligand. Filter mats were dried on a hot plate and soaked in Betaplate (Perkin Elmer, Waltham, Mass., USA) scintillation fluid in plastic bags. Bags were sealed and placed in cassettes. Radioactivity was measured in a Microbeta2 Microplate Counter (Perkin Elmer, Waltham, Mass., USA), and counts per minute corresponding to each well on the plates were recorded. For full dose-response competition binding assays, increasing half-log unit concentrations of five unsubstituted PSCs were tested at M2Rs and M1Rs, with the same procedures described above.
(§2) Curve Fitting and Statistical Analyses: All data were analyzed by GraphPad 8.3.0 (San Diego, Calif., USA). Ki values were determined from data fit to both one- and two-site models. […] EC50 and IC50 values from functional assays were determined from data fit to the log(agonist) vs. response (three parameters) or log(inhibitor) vs. response (three parameters) model, respectively. Kb values were calculated from IC50 values using the Cheng-Prusoff equation with modification (see, e.g., Leff, P., and Dougall, I. G. (1993) Trends Pharmacol Sci 14, 110-112): Kb=IC50/((2+([A]/[A50])nH)1/nH−1)

A further data set has as its target T2, human M3R (Homo sapiens, UniProt P20309).
T2 construct: host or cells: HEK293 (CRL-1573, ATCC), transient
In words: biochemical. It is filed as binding. Particulars: estimate from 1 and 10 μM concentrations (N = 2); N.C. = <5% displacement of radioligand at 10 μM; read-out: estimated pKi at M3R (converted). On the procedure:
as §1, §2

The next data set has as its target T3, human M2R (Homo sapiens, UniProt P08172).
T3 construct: host or cells: HEK293 (CRL-1573, ATCC), transient
T3 sequence (P08172 1-466): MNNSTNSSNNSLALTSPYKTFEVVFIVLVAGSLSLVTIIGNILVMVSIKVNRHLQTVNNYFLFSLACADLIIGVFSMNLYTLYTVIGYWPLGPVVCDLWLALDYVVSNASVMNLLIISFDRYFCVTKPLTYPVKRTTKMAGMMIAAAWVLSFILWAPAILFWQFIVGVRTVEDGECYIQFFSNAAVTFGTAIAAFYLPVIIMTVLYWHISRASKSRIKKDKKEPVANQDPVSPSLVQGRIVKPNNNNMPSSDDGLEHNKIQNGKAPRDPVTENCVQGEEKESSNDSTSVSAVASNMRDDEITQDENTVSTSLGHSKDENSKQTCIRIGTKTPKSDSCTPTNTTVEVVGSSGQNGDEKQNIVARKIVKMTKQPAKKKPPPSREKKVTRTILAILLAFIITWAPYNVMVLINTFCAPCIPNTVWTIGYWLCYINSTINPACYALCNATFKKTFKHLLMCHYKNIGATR
In words: [3H]Scopolamine radioligand competition binding at M2R. On the procedure: as §1, §2

A further data set concerns the target T4, human M4R (Homo sapiens, UniProt P08173).
T4 construct: host or cells: HEK293 (CRL-1573, ATCC), transient
T4 sequence (P08173 1-479): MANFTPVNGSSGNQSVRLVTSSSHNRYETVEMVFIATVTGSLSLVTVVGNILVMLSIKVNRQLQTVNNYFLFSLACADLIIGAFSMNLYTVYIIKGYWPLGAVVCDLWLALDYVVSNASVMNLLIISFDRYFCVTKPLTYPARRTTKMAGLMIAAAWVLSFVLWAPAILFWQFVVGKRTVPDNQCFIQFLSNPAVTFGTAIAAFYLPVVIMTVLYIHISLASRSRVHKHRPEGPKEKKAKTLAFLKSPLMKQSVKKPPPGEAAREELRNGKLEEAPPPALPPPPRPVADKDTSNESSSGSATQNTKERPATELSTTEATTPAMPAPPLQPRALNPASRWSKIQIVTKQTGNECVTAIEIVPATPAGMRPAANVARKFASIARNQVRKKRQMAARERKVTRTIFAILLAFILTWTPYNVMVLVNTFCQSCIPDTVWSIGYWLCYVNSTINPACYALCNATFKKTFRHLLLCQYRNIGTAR
Briefly: [3H]Scopolamine radioligand competition binding at M4R. On the procedure: as §1, §2

The next data set addresses T5, human M5R (Homo sapiens, UniProt P08912).
T5 construct: host or cells: HEK293 (CRL-1573, ATCC), transient
T5 sequence (P08912 1-532): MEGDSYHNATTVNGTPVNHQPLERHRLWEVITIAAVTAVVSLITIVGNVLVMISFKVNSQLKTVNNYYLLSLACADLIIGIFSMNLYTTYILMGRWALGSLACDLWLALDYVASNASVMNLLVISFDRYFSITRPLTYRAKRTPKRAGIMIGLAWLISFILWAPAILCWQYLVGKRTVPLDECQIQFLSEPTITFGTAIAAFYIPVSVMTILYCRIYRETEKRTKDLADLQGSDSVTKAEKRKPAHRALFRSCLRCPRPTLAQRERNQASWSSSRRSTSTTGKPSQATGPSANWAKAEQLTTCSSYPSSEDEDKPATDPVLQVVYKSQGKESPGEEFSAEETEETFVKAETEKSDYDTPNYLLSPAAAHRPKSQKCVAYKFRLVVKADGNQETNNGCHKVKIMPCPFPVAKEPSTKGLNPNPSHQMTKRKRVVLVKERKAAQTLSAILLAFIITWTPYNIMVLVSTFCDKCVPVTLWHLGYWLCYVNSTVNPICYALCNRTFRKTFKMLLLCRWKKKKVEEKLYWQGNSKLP
Briefly: [3H]Scopolamine radioligand competition binding at M5R. The method, then: as §1, §2

The conditions of data set [1]: 42 cases of intoxication, Beck et al. 2016; cited from earlier work.

T2 sequence (P20309 whole entry): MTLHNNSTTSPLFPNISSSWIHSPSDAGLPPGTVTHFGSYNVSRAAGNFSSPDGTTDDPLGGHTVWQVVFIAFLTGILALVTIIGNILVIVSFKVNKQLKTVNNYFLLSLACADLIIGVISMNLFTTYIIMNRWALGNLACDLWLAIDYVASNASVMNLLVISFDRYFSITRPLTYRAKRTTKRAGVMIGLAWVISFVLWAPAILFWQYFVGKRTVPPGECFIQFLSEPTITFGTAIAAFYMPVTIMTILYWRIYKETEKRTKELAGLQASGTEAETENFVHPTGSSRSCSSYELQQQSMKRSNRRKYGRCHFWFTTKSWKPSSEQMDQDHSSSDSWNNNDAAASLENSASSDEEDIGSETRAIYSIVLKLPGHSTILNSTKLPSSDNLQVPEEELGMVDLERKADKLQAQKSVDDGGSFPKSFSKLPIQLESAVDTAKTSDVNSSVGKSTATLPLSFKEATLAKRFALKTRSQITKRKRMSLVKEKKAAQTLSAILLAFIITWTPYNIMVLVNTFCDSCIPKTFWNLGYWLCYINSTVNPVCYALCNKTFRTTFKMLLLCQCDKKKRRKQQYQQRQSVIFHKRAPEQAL

Turning to `CCCC(C(=O)c1ccccc1)N1CCCC1` (stereo not drawn) [α-PVP, α-Pyrrolidinopentiophenone], the Ki at human M1R is 5.13 µM; on human M3R it was 6.03 µM; on human M2R (Ki at M2Rs, full dose-response [3H]Scopolamine competition binding) it was 0.824 µM; on human M4R, 8.13 µM; on human M5R, 4.17 µM. The “fold increase in M2R affinity compared to α-PBP” value at human M2R is 49 fold. The “fold increase in M2R affinity compared to α-PPP” value on human M2R was found to be 89 fold. Moreover, the “patients presenting with tachycardia” value in data set [1] was 80%.
